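GI50: concentration for 50% inhibition of growth. At the TGI there is no net growth.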
Assays:
Assay in all cases: NCI-60 cell line screen, 384-well format
[1] = tested on: NCI-H226 lung
[2] = tested on: LOX IMVI melanoma
[3] = tested on: NCI-H522 lung
[4] = tested on: NCI-H322M lung
[5] = tested on: TK-10 renal
[6] = tested on: SR leukemia
[7] = tested on: MDA-MB-435 melanoma
[8] = tested on: SN12C renal
[9] = tested on: NCI/ADR-RES ovarian
[10] = tested on: SK-MEL-2 melanoma
[11] = tested on: UACC-257 melanoma
[12] = tested on: A498 renal
[13] = tested on: SK-OV-3 ovarian
[14] = tested on: SF-295 CNS
[15] = tested on: CAKI-1 renal
[16] = tested on: HOP-92 NSCLC
[17] = tested on: SF-539 CNS
[18] = tested on: HT29 colon
[19] = tested on: MOLT-4 leukemia
[20] = tested on: K-562 leukemia
[21] = tested on: OVCAR-5 ovarian
[22] = tested on: UO-31 renal
[23] = tested on: KM12 colon
[24] = tested on: MDA-MB-231 breast
[25] = tested on: MCF7 breast
[26] = tested on: PC-3 prostate
[27] = tested on: HCT-116 colon
[28] = tested on: HL-60(TB) leukemia
[29] = tested on: M14 melanoma
[30] = tested on: HCT-15 colon
[31] = tested on: BT-549 breast
[32] = tested on: SW-620 colon
[33] = tested on: MDA-MB-468 breast
[34] = tested on: UACC-62 melanoma
[35] = tested on: A549 NSCLC
[36] = tested on: HCC-2998 colon
[37] = tested on: NCI-H23 lung
[38] = tested on: RXF 393 renal
[39] = tested on: T-47D breast
[40] = tested on: SK-MEL-28 melanoma
[41] = tested on: SF-268 CNS
[42] = tested on: ACHN renal
[43] = tested on: HOP-62 NSCLC
[44] = tested on: OVCAR-4 ovarian
[45] = tested on: CCRF-CEM leukemia
[46] = tested on: SK-MEL-5 melanoma
[47] = tested on: OVCAR-8 ovarian
[48] = tested on: SNB-19 CNS
[49] = tested on: RPMI-8226 leukemia
[50] = tested on: COLO 205 colon
[51] = tested on: OVCAR-3 ovarian
[52] = tested on: IGROV1 ovarian
[53] = tested on: 786-0 renal
[54] = tested on: U251 glioblastoma
[55] = tested on: NCI-H460 NSCLC
[56] = tested on: DU-145 prostate

CNC(C)C(=O)N[C@H](C(=O)N1CCC[C@@H]1CN(CCc1ccccc1)C(=O)C(F)(F)F)[C@H](C)OCC#CC#CCO[C@H](C)[C@H](NC(=O)[C@H](C)NC)C(=O)N1CCC[C@H]1CN(CCc1ccccc1)C(=O)C(F)(F)F (some centres not stated)
GI50 [1]: 3390 nM
TGI [1]: 16700 nM
GI50 [2]: 2060 nM
TGI [2]: 3510 nM
GI50 [3]: 906 nM
TGI [3]: 2150 nM
GI50 [4]: 5600 nM
TGI [4]: 22700 nM
GI50 [5]: 2520 nM
TGI [5]: 5600 nM
GI50 [6]: 342 nM
TGI [6]: 1960 nM
GI50 [7]: 98.1 nM
TGI [7]: 1940 nM
GI50 [8]: 2340 nM
TGI [8]: 4060 nM
GI50 [9]: > 100000 nM
TGI [9]: > 100000 nM
GI50 [10]: < 10 nM
TGI [10]: < 10 nM
GI50 [11]: 1600 nM
TGI [11]: 2960 nM
GI50 [12]: 2070 nM
TGI [12]: 4560 nM
GI50 [13]: < 10 nM
TGI [13]: 71.9 nM
GI50 [14]: 2650 nM
TGI [14]: 14500 nM
GI50 [15]: 6020 nM
TGI [15]: 17700 nM
GI50 [16]: 310 nM
TGI [16]: 1780 nM
GI50 [17]: 1540 nM
TGI [17]: 2880 nM
GI50 [18]: 1690 nM
TGI [18]: 3100 nM
GI50 [19]: 1630 nM
TGI [19]: 2990 nM
GI50 [20]: 1810 nM
TGI [20]: 3230 nM
GI50 [21]: 58900 nM
TGI [21]: > 100000 nM
GI50 [22]: > 100000 nM
TGI [22]: > 100000 nM
GI50 [23]: 1720 nM
TGI [23]: 3130 nM
GI50 [24]: < 10 nM
TGI [24]: < 10 nM
GI50 [25]: 1300 nM
TGI [25]: 2590 nM
GI50 [26]: 4080 nM
TGI [26]: 13400 nM
GI50 [27]: 1920 nM
TGI [27]: 3350 nM
GI50 [28]: < 10 nM
TGI [28]: < 10 nM
GI50 [29]: 1800 nM
TGI [29]: 3210 nM
GI50 [30]: 21300 nM
TGI [30]: > 100000 nM
GI50 [31]: < 10 nM
TGI [31]: 2160 nM
GI50 [32]: 1820 nM
TGI [32]: 3240 nM
GI50 [33]: < 10 nM
TGI [33]: 78.5 nM
GI50 [34]: 1730 nM
TGI [34]: 3120 nM
GI50 [35]: 3320 nM
TGI [35]: 17200 nM
GI50 [36]: 1310 nM
TGI [36]: 2620 nM
GI50 [37]: 268 nM
TGI [37]: 7590 nM
GI50 [38]: < 10 nM
TGI [38]: 62.5 nM
GI50 [39]: 1600 nM
TGI [39]: 2960 nM
GI50 [40]: 1450 nM
TGI [40]: 2780 nM
GI50 [41]: 1740 nM
TGI [41]: 3130 nM
GI50 [42]: > 100000 nM
TGI [42]: > 100000 nM
GI50 [43]: 906 nM
TGI [43]: 2190 nM
GI50 [44]: < 10 nM
TGI [44]: < 10 nM
GI50 [45]: 25.3 nM
TGI [45]: 1430 nM
GI50 [46]: 149 nM
TGI [46]: 730 nM
GI50 [47]: 1050 nM
TGI [47]: 2240 nM
GI50 [48]: 6770 nM
TGI [48]: 21400 nM
GI50 [49]: 617 nM
TGI [49]: 1940 nM
GI50 [50]: 1690 nM
TGI [50]: 3080 nM
GI50 [51]: 1250 nM
TGI [51]: 2550 nM
GI50 [52]: 5720 nM
TGI [52]: 83400 nM
GI50 [53]: 1760 nM
TGI [53]: 3160 nM
GI50 [54]: 1710 nM
TGI [54]: 3100 nM
GI50 [55]: 1680 nM
TGI [55]: 3070 nM
GI50 [56]: 1740 nM
TGI [56]: 5180 nM
